The record followed here is US9272040B2, “5-CNAC as oral delivery agent for parathyroid hormone fragments” (Novartis AG, priority 2001, dated 2016).

The data set in a line: Primate administration: plasma hPTH by radioimmunoassay after oral capsule. Format: in vivo. The conditions noted are these: Table 2 versus Table 1, Rhesus monkey. As for the experimental part:
The capsules prepared in Example 1 are administered to Rhesus monkeys as follows: four monkeys in a group are each dosed with one capsule prepared as in Example 1 as follows:
The Rhesus monkeys fast overnight prior to dosing and are restrained in chairs fully conscious, for the duration of the study period. The capsules are orally administered via a gavage tube followed by 10 ml of water.
Blood samples are collected at 0, 0.25, 0.5, 0.75, 1, 1.5, 2, 3, 4, 5, and 6 hours after administration. Plasma hPTH levels are determined by radioimmunoassay. The primate plasma PTH results from each group of monkeys are averaged and the maximum mean plasma calculated.

Regarding `O=C(O)CCCCCCCNC(=O)c1cc(Cl)ccc1O` [Capsule 5-CNAC, N-(5-chlorosalicyloyl)-8-aminocaprylic acid], the “effect of carrier on oral delivery of the hPTH fragment” value is on record as “significantly facilitates the oral delivery of the hPTH fragment”.
